The source of these data is ChEMBL document CHEMBL1201862, “PubChem BioAssay data set” (2004).

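The compound was tested at five concentrations on cells cultured in 96-well plates, with a 48-hour exposure period. GI50: concentration for 50% inhibition of growth.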 Activity calls are given as the source filed them. Cut-off read from the data, not from the text of the source: active = GI50 up to about 1.1 µM and inactive = higher.

Some test systems named below: HCT-116; MDA-MB-231; HT-29; OVCAR-3; UACC-257; CCRF-CEM; MOLT-4; SR; SK-MEL-2; SNB-19; SN12C; TK-10; MCF7; NCI-H23; LOX IMVI; NCI-H460; NCI-H226; HOP-92.
What all share (experiment): NCI tumour cell line growth inhibition, 48 h

Turning to `CC1(C)[C@@H]2C[C@H]1C(Cc1ccc(C[C@H]3c4cc(-c5ccccn5)ncc4[C@H]4C[C@@H]3C4(C)C)cc1)c1cc(-c3ccccn3)ncc12` (stereo partly specified), the GI50 in the test on HCT-116 is 0.75 µM (active); in the test on MDA-MB-231, 5.35 µM (inactive); in the test on HT-29, 1.44 µM (inactive); with OVCAR-3, 0.679 µM (active); with UACC-257, 2.63 µM (inactive); with CCRF-CEM, 0.619 µM (active). The GI50 with MOLT-4 was 0.431 µM (active); with SR it was 0.561 µM (active); in the test with SK-MEL-2, 7.38 µM (inactive); in the test with SNB-19, 3.32 µM (inactive); with SN12C, 0.902 µM (active); with TK-10, 0.841 µM (active). The GI50 was 1.89 µM (inactive) in the test with MCF7, 2.68 µM (inactive) with NCI-H23, 0.843 µM (active) in the test on LOX IMVI and 0.916 µM (active) in the test with NCI-H460.
As for `O=c1cc(-c2ccccc2)[nH]c2cc(F)cc(F)c12`, the GI50 was 36.2 µM (inactive) in the test on HCT-116; 20.9 µM (inactive) in the test with NCI-H226; 41.6 µM (inactive) in the test on HOP-92; 36.6 µM (inactive) with HT-29; 40.1 µM (inactive) in the test on UACC-257; 61.7 µM (inactive) in the test with CCRF-CEM. Further, the GI50 with MOLT-4 is 75.5 µM (inactive); with SR it was 3.75 µM (inactive); with SK-MEL-2, 18.2 µM (inactive); in the test with SN12C, 52.5 µM (inactive); in the test on TK-10 it was 63.7 µM (inactive); in the test on NCI-H23, 48.6 µM (inactive). Besides, the GI50 was 55.8 µM (inactive) in the test on LOX IMVI and 28.3 µM (inactive) in the test with NCI-H460.
For the molecule `O=C(CN1C(=O)CC(c2ccccc2)(c2ccccc2)C1=O)N1CCN(CCO)CC1`, the GI50 with HCT-116, in the test with MDA-MB-231, in the test on HOP-92, with HT-29, with OVCAR-3 and with UACC-257 was > 100 µM (inactive) throughout. Besides, the GI50 in the test on CCRF-CEM, with MOLT-4, with SK-MEL-2, with SNB-19, in the test on SN12C and in the test on TK-10 was > 100 µM (inactive) throughout. Moreover, the GI50 in the test on MCF7, with NCI-H23 and with LOX IMVI was > 100 µM (inactive) throughout.
`ClC1c2ccccc2C2(c3ccccc3)OOC1(c1ccccc1)O2` (stereo unspecified): the GI50 in the test on NCI-H226 was 2.32 µM (inactive); in the test with HOP-92, 0.39 µM (active); in the test with HT-29 it was 2 µM (inactive); in the test on OVCAR-3, 1.77 µM (inactive); with UACC-257, 1.99 µM (inactive); with MOLT-4 it was 1.26 µM (inactive). The GI50 in the test on SR was 1.32 µM (inactive); in the test on SK-MEL-2, 1.94 µM (inactive); in the test with SNB-19 it was 1.7 µM (inactive); with SN12C it was 1.48 µM (inactive); in the test with TK-10, 2.58 µM (inactive); with NCI-H23, 1.8 µM (inactive). Further, the GI50 with LOX IMVI is 0.352 µM (active); in the test on NCI-H460, 1.64 µM (inactive).
For `CN(C)CCNC(=O)c1cccc2nc3ccc4cccnc4c3nc12`, the GI50 in the test on HCT-116 was 0.0467 µM (active); in the test with NCI-H226 it was 0.319 µM (active); in the test on HOP-92, 0.351 µM (active); in the test with HT-29 it was 0.208 µM (active); in the test on OVCAR-3 it was 0.61 µM (active); in the test on UACC-257 it was 0.447 µM (active). Besides, the GI50 in the test on CCRF-CEM is 0.213 µM (active); in the test with MOLT-4, 0.0441 µM (active); in the test with SK-MEL-2, 0.895 µM (active); in the test on SNB-19, 0.362 µM (active); with SN12C, 0.172 µM (active); with TK-10 it was 0.107 µM (active). The GI50 is 0.294 µM (active) with NCI-H23, 0.24 µM (active) with LOX IMVI and 0.0565 µM (active) with NCI-H460.
On to `O=C(Nc1ccc(Cl)cc1)c1cc(S(=O)(=O)Nc2nnc3c(Cl)cc(C(F)(F)F)cn23)c(S)cc1Cl`, for which the GI50 is 68.1 µM (inactive) in the test on HCT-116; 33.8 µM (inactive) in the test on MDA-MB-231; > 100 µM (inactive) with NCI-H226; > 100 µM (inactive) in the test on HOP-92; 51.9 µM (inactive) in the test with HT-29; > 100 µM (inactive) with OVCAR-3. Also, the GI50 is > 100 µM (inactive) in the test on UACC-257; > 100 µM (inactive) in the test with CCRF-CEM; 66.8 µM (inactive) with MOLT-4; 29.6 µM (inactive) in the test with SR; 15 µM (inactive) with SK-MEL-2; 52.2 µM (inactive) with SNB-19. Further, the GI50 with SN12C is 84.5 µM (inactive); with TK-10 it was > 100 µM (inactive); in the test with MCF7 it was > 100 µM (inactive); in the test on NCI-H23, 59.7 µM (inactive); in the test with NCI-H460, 43.1 µM (inactive).
As for `c1ccc(C2=NOC3C4CCC(C4)C23)cc1` (stereo unspecified), the GI50 in the test with HCT-116, with NCI-H226, in the test on HOP-92, with HT-29, in the test with OVCAR-3 and in the test with UACC-257 was > 100 µM (inactive) each time. Besides, the GI50 in the test with CCRF-CEM, in the test with MOLT-4, in the test on SR, in the test with SK-MEL-2, with SNB-19 and in the test on SN12C was > 100 µM (inactive) each time. Moreover, the GI50 in the test with TK-10, with NCI-H23 and with NCI-H460 was > 100 µM (inactive) in each case.
`O=C(Nc1c(O)[nH]c(=S)[nH]c1=O)c1ccc2ccccc2n1`: the GI50 in the test on HCT-116, in the test with NCI-H226, in the test with HOP-92, with HT-29, in the test on OVCAR-3 and in the test with UACC-257 was > 100 µM (inactive) throughout. For the same molecule, the GI50 in the test on CCRF-CEM, in the test with MOLT-4, in the test with SR, in the test on SNB-19, in the test with SN12C and with TK-10 was > 100 µM (inactive) each time. Besides, the GI50 in the test with NCI-H23, in the test with LOX IMVI and in the test with NCI-H460 was > 100 µM (inactive) in each case.
As to `CC(=O)CC(=O)/C=C/c1cccs1`, the GI50 with HCT-116 was 40.7 µM (inactive); with NCI-H226 it was > 100 µM (inactive); in the test with HT-29, 58.9 µM (inactive); in the test on OVCAR-3 it was > 100 µM (inactive); in the test on UACC-257, > 100 µM (inactive); with CCRF-CEM it was 38.5 µM (inactive). In addition, the GI50 is > 100 µM (inactive) with MOLT-4; 48.1 µM (inactive) in the test with SR; > 100 µM (inactive) in the test on SK-MEL-2; > 100 µM (inactive) in the test on SNB-19; 63 µM (inactive) with SN12C; > 100 µM (inactive) in the test on TK-10. In addition, the GI50 in the test with NCI-H23 was > 100 µM (inactive); with LOX IMVI, 55.2 µM (inactive); with NCI-H460, 64.1 µM (inactive).
Turning to `CCCCCCCCCC(=O)OCC1OC(n2cc(F)c(=O)[nH]c2=O)C(N)C(OC(=O)CCCCCCCCC)C1O` (stereo unspecified), the GI50 was 18.2 µM (inactive) in the test on HCT-116; 20.6 µM (inactive) in the test on HOP-92; 17.5 µM (inactive) in the test on HT-29; 18.6 µM (inactive) in the test with OVCAR-3; 20 µM (inactive) in the test on UACC-257; 18.5 µM (inactive) with CCRF-CEM. The GI50 in the test on MOLT-4 was 14.1 µM (inactive); with SR it was 19.7 µM (inactive); in the test with SK-MEL-2, 15.5 µM (inactive); in the test with SNB-19, 17.4 µM (inactive); with SN12C it was 16.9 µM (inactive); in the test with TK-10, 36.1 µM (inactive). Besides, the GI50 in the test on NCI-H23 was 18.7 µM (inactive); in the test on LOX IMVI, 16.5 µM (inactive); in the test with NCI-H460 it was 19.4 µM (inactive).
As for `CN[C@@H](C)[C@H](N)c1ccccc1`, the GI50 in the test with HCT-116, in the test with NCI-H226, with HOP-92, in the test on HT-29, in the test with OVCAR-3 and with UACC-257 was > 100 µM (inactive) throughout. Also, the GI50 in the test with CCRF-CEM, in the test on MOLT-4, in the test on SN12C, in the test with TK-10, in the test with NCI-H23 and in the test with LOX IMVI was > 100 µM (inactive) each time. Moreover, the GI50 with NCI-H460 is > 100 µM (inactive).
Take `CC1CCC(=O)C(C(=O)CC2CC(=O)N(C)C(=O)C2)C1` (stereo unspecified): the GI50 in the test with HCT-116, in the test with MDA-MB-231, with NCI-H226, with HOP-92, in the test on HT-29 and with OVCAR-3 was > 100 µM (inactive) throughout. Moreover, the GI50 in the test on UACC-257, with CCRF-CEM, in the test with MOLT-4, in the test on SK-MEL-2, in the test with SNB-19 and in the test on SN12C was > 100 µM (inactive) throughout. Besides, the GI50 in the test with TK-10, in the test on MCF7, in the test with NCI-H23, in the test on LOX IMVI and in the test on NCI-H460 was > 100 µM (inactive) in each case.
Turning to `O=C(Nc1cccc(Cl)c1)C(=O)C(C(=O)c1ccc2ccccc2c1)C1OC(=O)c2ccccc21` (stereo unspecified), the GI50 in the test on HCT-116 was 12.6 µM (inactive); in the test on NCI-H226 it was 2.86 µM (inactive); with HOP-92 it was 20.6 µM (inactive); in the test with HT-29 it was 31.9 µM (inactive); in the test on OVCAR-3 it was 14.7 µM (inactive); in the test on UACC-257, 17 µM (inactive). Moreover, the GI50 in the test with CCRF-CEM is 11.2 µM (inactive); in the test with MOLT-4, 3.99 µM (inactive); in the test on SK-MEL-2 it was 14.6 µM (inactive); in the test on SNB-19, 5.3 µM (inactive); with SN12C, 18.6 µM (inactive); in the test with TK-10, 29 µM (inactive). Further, the GI50 in the test with NCI-H23 is 7.94 µM (inactive); with LOX IMVI, 17.3 µM (inactive); in the test with NCI-H460, 8.75 µM (inactive).
